From US20260256741A1, “ANTICANCER MALEIMIDE DERIVATIVES FOR USE WITH IMMUNE CHECKPOINT BLOCKADE” (BROWN UNIVERSITY, priority 2022, published 2026)

Tests used:
HCT 116 GFP+ cells = test: Single-color GFP+ immune cell co-culture, HCT 116; type: cell-based, human; settings: 48 hours
Experimental: 50,000 HT-29 or HCT 116 cells were seeded in a 12-well tissue culture plate and allowed to adhere overnight. They were then transduced with lentivirus containing the plasmid pLenti_CMV_GFP_Hygro [pLenti CMV GFP Hygro (656-4) was a gift from Eric Campeau & Paul Kaufman (Addgene viral prep #17446-LV; RRID: Addgene_17446)] at a multiplicity of infection of 10 with 8 μg/mL polybrene (hexadimethrine bromide [Cat #107689, Sigma Aldrich, St. Louis, MO, USA) for 24 hours before washing with PBS and replacing with fresh medium (49). The cells were then sorted for GFP-positivity using a BD FACSAria™ III Cell Sorter (RRID: SCR_016695).
5000 HT-29 GFP+ or HCT 116 GFP+ cells were plated per well in a clear-bottom, black-walled 96-well tissue culture plate and were allowed to adhere overnight. Cells were subsequently treated with DMSO, 5 μM elraglusib, and/or 5000 TALL-104 or NK-92 cells (for an effector-to-tumor ratio of 1:1) for 48 hours. Nine images were taken per well at 10× magnification using a Molecular Devices ImageXpress® Confocal HT.ai High-Content Imaging System and quantified for the number of GFP+ objects using the MetaXpress (RRID: SCR_016654) software (Molecular Devices, San Jose, CA, USA). 40× Images were also taken at 24 hours for representative images of cellular morphology changes. Statistical analysis was done using GraphPad Prism 9 (RRID: SCR_002798).

HCT-116 CRC cells = test: Western blot analysis of HCT-116 CRC cells; type: cell-based, human
Experimental: (§1) Recombinant Human TNF-α (Cat #300-01A, PeproTech, Rocky Hill, NJ, USA) and Recombinant Human IFN-γ (Cat #300-02, Peprotech, Rocky Hill, NJ, USA) were purchased for use in western blot analysis while rhTRAIL was generated in-house. Kim et al., J Biol Chem., 279(38):40044-52 (2004).
(§2) Cells were plated in a 6-well plate and incubated overnight before the spent media was replaced with drugged media. Drug treatment lasted for indicated durations. Protein was extracted using radioimmunoprecipitation (RIPA) assay buffer (Cat #R0278, Sigma-Aldrich, St. Louis, MO) containing cOmplete™, Mini, EDTA-free Protease Inhibitor Cocktail (Cat #4693159001, Roche, Basel, Switzerland) from sub-confluent cells. Denaturing sample buffer was added, samples were boiled at 95 degrees for 10 minutes, and an equal amount of protein lysate was electrophoresed through NuPAGE™ 4 to 12%, Bis-Tris, 1.5 mm, Mini Protein Gels (Invitrogen, Waltham, MA) then transferred to PVDF membranes. The PVDF membrane was blocked with 5% non-fat milk (Sigma-Aldrich, St. Louis, MO) in 1×TTBS. Primary antibodies were incubated with the transferred PVDF membrane in blocking buffer at 4° C. overnight. Secondary antibodies used included Goat anti-Rabbit IgG (H+L) Secondary Antibody, HRP (Cat #31460, Invitrogen, Waltham, MA), and Goat anti-Mouse IgG (H+L) Secondary Antibody, HRP (Cat #31430, Invitrogen, Waltham, MA). Signal was detected using Pierce™ ECL Western Blotting Substrate (Cat #32106, Thermo Scientific, Waltham, MA, USA) and a Syngene Imaging System (RRID: SCR_015770).

HT-29 CRC cells = test: Western blot analysis of HT-29 CRC cells; type: cell-based, human
Experimental: as §1, §2

NK-92 cells = test: 10x single-cell sequencing, NK-92; type: cell-based, human; settings: 1 μM, 24 hours vs DMSO
Experimental: Single cells were captured and 3′ single-cell gene expression libraries were conducted (Next GEM v3.1) using the 10× Genomics Chromium system by SingulOmics (SingulOmics, New York, NY, USA). Gene expression libraries were sequenced with ~200 million PE150 reads per sample on Illumina (RRID: SCR_016387) NovaSeq (Illumina, Inc., San Diego, CA, USA). After sequencing clean reads were then analyzed with human reference genome GRCh38 using Cell Ranger v6.1.2 ([RRID: SCR_017344],10× Genomics, Pleasanton, CA, USA). Data were analyzed and visualized using Loupe Browser ([RRID: SCR_018555], 10× Genomics, Pleasanton, CA, USA).

[1] = Tolerability in the CT-26 BALB/c model (body weight, blood count, serum chemistry); parameters: species or system BALB/c mice; settings: mouse, in vivo
Experimental: The experimental in vivo protocol (Protocol #19-01-003) was approved by the Institutional Animal Care and Use Committee of Brown University (Providence, RI, USA). Six to 7 weeks-old female BALB/c mice (RRID: IMSR_JAX:000651) were purchased from Taconic. 50,000 cells were suspended in 50 μL ice-cold PBS and 50 μL Matrigel (Catalog # 354234, Corning, New York, USA), and 100 uL was injected subcutaneously into the rear flanks. Once tumor volume reached at least 100 mm^3, mice were randomly assigned to one of seven groups (3 mice/group): Control (isotype), elraglusib, elraglusib+Isotype, anti-PD-1, anti-PD-L1, elraglusib+anti-PD-1, and elraglusib+anti-PD-L1. All treatments were delivered by IP injection on the following dosing schedule: Isotype (70 mg/kg, twice a week), elraglusib (70 mg/kg, twice a week), anti-PD-1 (10 mg/kg, twice a week), anti-PD-L1 (10 mg/kg, twice a week). The treatment continued until mice developed signs of discomfort from excessive tumor growth. Mice were weighed once a week to monitor signs of drug toxicity. The length (L) and width (W) of the masses were measured three times per week with a digital caliper, and the tumor volume was calculated by applying the formula: 0.5LW2. Collection of whole blood and serum was performed by cardiac puncture and sent to Antech GLP for blood cell count and chemistry tests, or in-house cytokine profiling. […]

[2] = as the 0-72 hour time-course progressed
[3] = as the treatment duration increased (0-72 hours)
[4] = especially at later timepoints (48, 72 hr)
[5] = low dose as in co-culture assays, until the 48-hour timepoint of 72-hour timecourse

Cn1cc(C2=C(c3coc4ccc(F)cc34)C(=O)NC2=O)c2cc3c(cc21)OCO3 [elraglusib, 3-(5-fluorobenzofuran-3-yl)-4-(5-methyl-5H-[1,3]dioxolo[4,5-f]indol-7-yl)-1H-pyrrole-2,5-dione]
tumor cell death (HCT 116 GFP+ cells; 5 μM elraglusib and NK-92 cells vs drug-only or immune cell-only): increased tumor cell death | GFP+ cells per low-powered field (HCT 116 GFP+ cells; 5 μM elraglusib only vs DMSO only control): significant decrease | number of GFP+ cells per field (HCT 116 GFP+ cells; TALL-104 and 5 μM elraglusib vs TALL-104 only): significant decrease | NF-κB p65 expression (HCT-116 CRC cells; [2]): decreased expression | PD-L1 expression (HCT-116 CRC cells; [3]): increases in PD-L1 expression | Mcl-1 protein expression (HCT-116 CRC cells; by the 24-hour timepoint): marked decreases in protein expression | Bcl-2 protein expression (HCT-116 CRC cells; [4]): decreases in protein expression | Survivin protein expression (HCT-116 CRC cells; [4]): decreases in protein expression | cleaved PARP (cPARP) (HCT-116 CRC cells; [5]): little to no cleaved PARP | NF-κB p65 expression (HT-29 CRC cells; [2]): decreased expression | PD-L1 expression (HT-29 CRC cells; [3]): increases in PD-L1 expression | Bcl-2 protein expression (HT-29 CRC cells; [4]): decreases in protein expression | Survivin protein expression (HT-29 CRC cells; [4]): decreases in protein expression | cleaved PARP (cPARP) (HT-29 CRC cells; [5]): little to no cleaved PARP | immune cell activation marker CD69 expression (NK-92 cells): increase | immune cell attractant CCL4 expression (NK-92 cells): increase | immunosuppressive marker CHI3L1 expression (NK-92 cells): decrease | renal function (BUN, creatinine, electrolytes) [1]: maintained normal renal function
